Here are results for three substances from patent publication US20250302862A1, “SMALL RNA DRUG FOR INHIBITING ACTIVITY OF CANCER CELLS” (Institute of Basic Medical Sciences Chinese Academy of …, priority 2022, published 2025).

Data set [1] concerns H460 cells. The data set is described as follows: Apoptosis detection (Annexin V / PI). The format is cell-based, human. The following applies: 100 nmol/L, 48 h. The method, then: H460 cells with a cell density of more than 90% in 10 cm^2 dishes were plated in 12-well plates according to the cell growth rate, and transfected after 12 h, and the groups were divided as follows: • blank control group (4 wells): 200 uL of opti-MEM per well • negative control group (NC group) and experimental group (3 wells each): the system in each well was as follows • A. 100 uL of opti-MEM and 2 uL of iMax were mixed well for 5 min • B. 100 uL of opti-MEM and 5 uL of small RNA (final concentration 100 nmol/L) were mixed well • C. solution A and solution B were mixed well and let stand for 15 min, and then was added to each well at a 200 uL system • Note: 100 uL of nuclease-free water was added to 2 nmol of small RNA dry powder for dissolution at a storage concentration of 20 umol/L
The supernatant and cells were collected after 48 h and washed twice with pre-chilled PBS. The 4 tubes of cells in the blank control group were added respectively with: (1) 200 uL of 1× binding buffer; (2) 200 uL of 1× binding buffer and 5 uL of Annexin V stain; (3) 200 uL of 1× binding buffer and 5 uL of PI stain; (4) 200 uL of 1× binding buffer, 5 uL of Annexin V stain and 5 uL of PI stain. 200 uL of 1× binding buffer, 5 uL of Annexin V stain and 5 uL of PI stain were added to each tube of both the NC group and the experimental group. The mixture was mixed well and filtered through 300 mesh filters. The live cell population and the position of quadrant gate were selected according to the blank control group, and then the apoptosis of the NC group and the experimental group was detected. […]

The subject of data set [2] is primary lung cancer Kras^LSL-G12Dp53^fl/fl (KP) mouse model. The data set is described as follows: Transcriptome sequencing of lung tissue, pathway clustering of differentially expressed genes. The format is in vivo. The following applies: KP mouse lung tissue after 30 days of dosing, metacore pathway clustering, vs NC group. From the text: The mouse model of primary lung cancer was Kras^LSL-G12Dp53^fl/fl (KP). Mice were weighed and assigned to the NC group and HQi-sRNA-2 group randomly. The NC group was the negative control, in which a sphingosine(d18:1)-NC-sRNA herbal medicine delivery system was constructed from NC-sRNA. The HQi-sRNA-2 group was the experimental group, in which a sphingosine(d18:1)-HQi-sRNA-2 herbal medicine delivery system was constructed from HQi-sRNA-2. The herbal medicine delivery system was constructed by heating and mixing 10 nmol of sRNA, 100 ug of sphingosine(d18:1) and 300 ul of sterile enzyme-free water in a water bath at 90° C. for 15 minutes. Mouse lung tissue was collected after 30 days of dosing, and the total RNA was extracted and subjected to non-strand-specific transcriptome sequencing. The differentially expressed genes in the experimental group and the control group were analyzed and calculated by a bioinformatics software, and the biological pathways in which the differentially expressed genes mainly functioned were analyzed by clustering using the metacore database. The pathways of the differentially expressed genes were visualized by the visualization software package ggplot2.
The mouse model of primary lung cancer was Kras^LSL-G12Dp53^fl/fl (KP). Mice were weighed and assigned to the NC group and MDM-sRNA-39 group randomly. […] The differentially expressed genes in the experimental group and the control group were analyzed and calculated by a bioinformatics software, and the biological pathways in which the differentially expressed genes mainly functioned were analyzed by clustering using the metacore database. […]
The mouse model of primary lung cancer was Kras^LSL-G12Dp53^fl/fl (KP). […] The differentially expressed genes in the experimental group and the control group were analyzed and calculated by a bioinformatics software, and the biological pathways in which the differentially expressed genes mainly functioned were analyzed by clustering using the metacore database. […]

For the substance “HQi-sRNA-2: small RNA derived from Scutellaria baicalensis, sequence AUGGUUCGAUUCCGGAGAGGG (listed as RNA, chemistry not given here)”, in data set [1], the apoptosis entry is “promotes”. In data set [2], the “functions of genes down-regulated at transcriptional level” value (from here on “functions of genes down-regulated”) was “mainly clustered in oncology, immunology and other related biological pathways”.
“MDM-sRNA-39: small RNA derived from Maytenus hookeri, sequence GGGAUUGUAGUUCAAUUGGUCAGAGCACC (listed as RNA, chemistry not given here)”: the apoptosis entry in data set [1] is “promotes”. In addition, the “functions of genes down-regulated” value in data set [2] was “mainly clustered in oncology, immunology and other related biological pathways”.
On to “MDM-sRNA-163: small RNA derived from Maytenus hookeri, sequence UGACUCUAGUCCGACUUUGUGAAAUGACU (listed as RNA, chemistry not given here)”, for which, in data set [1], the apoptosis result was “promotes”. Further, the “functions of genes down-regulated” value in data set [2] was “mainly clustered in oncology, immunology, and other related biological pathways”.
